Data published in patent US20250376468A1, “PYRAZOLO[1,5-a]PYRIDINE DERIVATIVES FOR TREATING TRPM3-MEDIATED DISORDERS” (Katholieke Universiteit Leuven, priority 2022, published 2025).

What follows are compounds tested against T1, mouse TRPM3α2 (mTRPM3) ion channel (Mus musculus, UniProt J9SQF3) (assay: TRPM3 ion channel driven Ca2+ uptake, Fluo-4 AM assay, stimulated with pregnenolone sulfate (50 μM)). Settings: TRPM3 overexpressing flip-in HEK293 cells, PS 50 μM, 2.4 mM Ca2+.
T1 construct: expressed in transfected cells; host or cells: flip-in HEK293 (Flp-In HEK293) overexpressing mTRPM3alpha2
T1 sequence (J9SQF3 1-1709 isoform J9SQF3-12): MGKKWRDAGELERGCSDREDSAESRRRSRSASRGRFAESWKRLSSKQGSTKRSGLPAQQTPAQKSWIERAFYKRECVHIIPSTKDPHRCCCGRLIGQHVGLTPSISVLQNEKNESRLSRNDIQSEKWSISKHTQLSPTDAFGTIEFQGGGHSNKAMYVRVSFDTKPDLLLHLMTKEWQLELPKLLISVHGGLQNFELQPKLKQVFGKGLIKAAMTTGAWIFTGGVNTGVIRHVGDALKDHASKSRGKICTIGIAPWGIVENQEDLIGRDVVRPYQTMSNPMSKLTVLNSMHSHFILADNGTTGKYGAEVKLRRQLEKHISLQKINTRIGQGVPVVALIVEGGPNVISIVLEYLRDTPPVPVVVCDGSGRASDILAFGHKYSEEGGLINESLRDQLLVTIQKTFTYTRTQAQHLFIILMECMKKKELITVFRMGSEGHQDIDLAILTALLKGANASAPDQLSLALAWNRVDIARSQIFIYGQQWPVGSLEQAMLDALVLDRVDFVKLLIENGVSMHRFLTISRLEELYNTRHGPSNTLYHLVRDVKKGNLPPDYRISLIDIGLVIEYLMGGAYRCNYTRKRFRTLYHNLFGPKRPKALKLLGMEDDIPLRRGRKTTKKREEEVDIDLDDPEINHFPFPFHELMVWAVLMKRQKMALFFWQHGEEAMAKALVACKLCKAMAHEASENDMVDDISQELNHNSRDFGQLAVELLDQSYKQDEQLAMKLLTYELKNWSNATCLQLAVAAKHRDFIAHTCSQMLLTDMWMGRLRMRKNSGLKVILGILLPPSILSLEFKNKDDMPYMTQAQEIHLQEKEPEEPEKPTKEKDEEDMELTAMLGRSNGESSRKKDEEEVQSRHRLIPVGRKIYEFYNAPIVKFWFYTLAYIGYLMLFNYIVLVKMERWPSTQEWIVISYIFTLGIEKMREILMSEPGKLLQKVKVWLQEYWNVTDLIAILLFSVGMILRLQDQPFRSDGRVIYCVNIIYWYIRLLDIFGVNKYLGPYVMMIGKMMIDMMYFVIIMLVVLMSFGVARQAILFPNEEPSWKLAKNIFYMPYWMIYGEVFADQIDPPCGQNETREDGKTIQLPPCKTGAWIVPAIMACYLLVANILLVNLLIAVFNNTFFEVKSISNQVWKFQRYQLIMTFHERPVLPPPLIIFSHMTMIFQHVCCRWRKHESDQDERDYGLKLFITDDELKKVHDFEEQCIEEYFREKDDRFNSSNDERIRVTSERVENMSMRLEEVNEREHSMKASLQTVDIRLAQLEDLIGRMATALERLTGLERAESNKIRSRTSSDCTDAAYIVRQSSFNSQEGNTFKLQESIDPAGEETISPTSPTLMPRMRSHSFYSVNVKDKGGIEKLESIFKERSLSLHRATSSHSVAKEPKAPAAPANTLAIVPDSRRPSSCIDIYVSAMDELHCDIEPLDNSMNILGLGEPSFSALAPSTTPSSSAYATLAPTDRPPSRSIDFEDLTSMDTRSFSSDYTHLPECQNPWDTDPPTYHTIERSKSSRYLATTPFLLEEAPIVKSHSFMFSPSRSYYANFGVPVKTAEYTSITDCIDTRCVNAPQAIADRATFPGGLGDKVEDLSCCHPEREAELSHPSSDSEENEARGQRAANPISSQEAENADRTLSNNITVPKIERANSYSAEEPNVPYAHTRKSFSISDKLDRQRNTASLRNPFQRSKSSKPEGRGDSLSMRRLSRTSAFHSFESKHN
Type: cell-based
Description: In order to monitor the inhibition of the mouse TRPM3α2 (mTRPM3) ion channel by the compounds of the invention, a cellular system making use of an mTRPM3alpha2 or hTRPM3 overexpressing cell line (flip-in HEK293) was used. The TRPM3 channel was stimulated/opened with Pregnenolone sulfate (PS) (50 μM) which results in Ca^2+ influx.
For mTRPM3, the intracellular Ca^2+ was measured with a Calcium responsive dye, Fluor-4 AM ester (Invitrogen). Cells were cultured until a confluence of 80-90%, washed with Versene (Invitrogen) and detached from the surface by a short incubation with 0.05% Trypsin (Invitrogen). The […] was stopped by the addition of complete cell culture medium (DMEM, glutamax, 10% FCS, NEAA, Pen-Strep). Cells were collected and resuspended in Krebs buffer without Calcium at RT.
Prior the cell seeding (±2000 cells/well into a black, 384 well plate (Greiner)) the diluted compound was added in the assay plate, together with the PS dissolved in Krebs buffer containing Calcium. […] Directly after cell addition the plates were read on an Envision fluorescence reader (Perkin Elmer) by an Excitation of 485 nm and emission at 535 nm.
Channel inhibition was calculated compared to a non-PS stimulated control versus a condition stimulated with PS (50 μM) with vehicle. The ability of the compounds of the invention to inhibit this activity was determined as: Percentage inhibition=[1−((RFU determined for sample with test compound present−RFU determined for sample with positive control inhibitor) divided by (RFU determined in the presence of vehicle−RFU determined for sample with positive control inhibitor))]*100.
The activities of the Example compounds cpd 001-091 tested are depicted in the table below. All tested compounds show an activity in the Fluo-4 AM assay. The activity ranges A, B and C refer to IC50 values in the Fluo-4 AM assay as follows: “A”: IC50<1 μM; “B”: 1 μM≤IC50≤20 μM and “C”: IC50>20 μM.

Row | Structure (SMILES) | IC50 [µM]
1 | Cc1nn2ccc(OCc3ccccn3)cc2c1C(=O)NC1CNCC(F)(F)C1 (single isomer, unassigned) [Cpd 052 - En2, N-(5,5-difluoropiperidin-3-yl)-2-methyl-5-[(pyridin-2-yl)methoxy]pyrazolo[1,5-a]pyridine-3-carboxamide] | > 20
2 | Cc1nn2ccc(OCc3ccccn3)cc2c1C(=O)NC1CNCCC1(F)F (single isomer, unassigned) [Cpd 050 - En1, N-(4,4-difluoropiperidin-3-yl)-2-methyl-5-[(pyridin-2-yl)methoxy]pyrazolo[1,5-a]pyridine-3-carboxamide] | > 20
3 | Cc1nn2ccc(OCc3ccccn3)cc2c1C(=O)NC(CO)CC(N)=O (stereo not shown) [Cpd 076 - En2] | > 20
4 | Cc1nn2ccc(OCC3CC3)cc2c1C(=O)O [Cpd 034, 5-(cyclopropylmethoxy)-2-methylpyrazolo[1,5-a]pyridine-3-carboxylic acid] | > 20
5 | Cc1nn2ccc(OCc3ccccc3F)cc2c1C(=O)N(C)C(C)(CO)C(N)=O (single isomer, unassigned) [Cpd 024 - En1, 2-(1-{5-[(2-fluorophenyl)methoxy]-2-methylpyrazolo[1,5-a]pyridin-3-yl}-N-methylformamido)-3-hydroxy-2-methylpropanamide] | 1 to 20
6 | Cc1nn2ccc(OCc3ccccn3)cc2c1C(=O)NCc1cccc(OC(F)F)c1 [Cpd 048, N-{[3-(difluoromethoxy)phenyl]methyl}-2-methyl-5-[(pyridin-2-yl)methoxy]pyrazolo[1,5-a]pyridine-3-carboxamide] | > 20
7 | Cc1nn2ccc(OCc3ccccn3)cc2c1C(=O)Nc1cc(C(F)(F)F)cnc1O [Cpd 056, N-[2-hydroxy-5-(trifluoromethyl)pyridin-3-yl]-2-methyl-5-[(pyridin-2-yl)methoxy]pyrazolo[1,5-a]pyridine-3-carboxamide] | > 20
8 | Cc1nn2ccc(OCc3ccccn3)cc2c1C(=O)N[C@H](CO)CC(N)=O [Cpd 076 - En1, (S)-4-hydroxy-3-({2-methyl-5-[(pyridin-2-yl)methoxy]pyrazolo[1,5-a]pyridin-3-yl}formamido)butanamide] | > 20
9 | Cc1nn2ccc(OCc3ccccn3)cc2c1C(=O)NC1CNCC(F)(F)C1 (single isomer, unassigned) [Cpd 052 - En1, N-(5,5-difluoropiperidin-3-yl)-2-methyl-5-[(pyridin-2-yl)methoxy]pyrazolo[1,5-a]pyridine-3-carboxamide] | 1 to 20
10 | Cc1nn2ccc(OCc3ccccn3)cc2c1C(=O)NC1(CO)CC(F)(F)C1 [Cpd 055, N-[3,3-difluoro-1-(hydroxymethyl)cyclobutyl]-2-methyl-5-[(pyridin-2-yl)methoxy]pyrazolo[1,5-a]pyridine-3-carboxamide] | 1 to 20
11 | Cc1nn2ccc(OCc3ccccn3)cc2c1C(=O)NC1(CO)CC1(F)F (stereo not shown) [Cpd 071, N-[2,2-difluoro-1-(hydroxymethyl)cyclopropyl]-2-methyl-5-[(pyridin-2-yl)methoxy]pyrazolo[1,5-a]pyridine-3-carboxamide] | > 20
12 | Cc1nn2ccc(OCc3ccccn3)cc2c1C(=O)NCc1c(F)cccc1C(F)(F)F [Cpd 047, N-{[2-fluoro-6-(trifluoromethyl)phenyl]methyl}-2-methyl-5-[(pyridin-2-yl)methoxy]pyrazolo[1,5-a]pyridine-3-carboxamide] | 1 to 20
13 | Cc1nn2ccc(OCc3ccccn3)cc2c1C(=O)NCC(F)(F)c1ccccc1 [Cpd 046, N-(2,2-difluoro-2-phenylethyl)-2-methyl-5-[(pyridin-2-yl)methoxy]pyrazolo[1,5-a]pyridine-3-carboxamide] | > 20
14 | Cc1nn2ccc(OCc3ccccc3F)cc2c1C(=O)NCC(F)F [Cpd 006, N-(2,2-difluoroethyl)-5-[(2-fluorophenyl)methoxy]-2-methylpyrazolo[1,5-a]pyridine-3-carboxamide] | 1 to 20
15 | Cc1nn2ccc(OCc3ccccc3F)cc2c1C(=O)O [Cpd 035, 5-[(2-fluorophenyl)methoxy]-2-methylpyrazolo[1,5-a]pyridine-3-carboxylic acid] | > 20
16 | Cc1nn2ccc(OCc3ccccc3F)cc2c1C(=O)NC(C)(CO)CO [Cpd 002, N-(1,3-dihydroxy-2-methylpropan-2-yl)-5-[(2-fluorophenyl)methoxy]-2-methylpyrazolo[1,5-a]pyridine-3-carboxamide] | 1 to 20
17 | Cc1nn2ccc(OCc3ccccn3)cc2c1C(=O)NC(CO)Cc1ncccn1 (stereo not shown) [Cpd 079 - En 1] | > 20
18 | Cc1nn2ccc(OCc3ccccn3)cc2c1C(=O)NC1(CO)COC(C)(C)OC1 [Cpd 057, N-[5-(hydroxymethyl)-2,2-dimethyl-1,3-dioxan-5-yl]-2-methyl-5-[(pyridin-2-yl)methoxy]pyrazolo[1,5-a]pyridine-3-carboxamide] | > 20
19 | Cc1nn2ccc(OCc3ccccc3Cl)cc2c1C(=O)NC(C)(CO)C(N)=O (single isomer, unassigned) [Cpd 019 - En2, 2-({5-[(2-chlorophenyl)methoxy]-2-methylpyrazolo[1,5-a]pyridin-3-yl}formamido)-3-hydroxy-2-methylpropanamide] | 1 to 20
20 | Cc1nn2ccc(OCc3ccccn3)cc2c1C(=O)N[C@@]1(CO)C[C@H]1C(F)F (relative stereo) [Cpd 072 - En1, N-[cis-2-(difluoromethyl)-1-(hydroxymethyl)cyclopropyl]-2-methyl-5-[(pyridin-2-yl)methoxy]pyrazolo[1,5-a]pyridine-3-carboxamide] | 1 to 20
21 | Cc1nn2ccc(OCc3ccccc3F)cc2c1C(=O)NC(C)(CO)C(N)=O (single isomer, unassigned) [Cpd 020 - En2, 2-({5-[(2-fluorophenyl)methoxy]-2-methylpyrazolo[1,5-a]pyridin-3-yl}formamido)-3-hydroxy-2-methylpropanamide] | 1 to 20

The remaining lines, values ahead:

Row | IC50 [µM] | Structure (SMILES)
22 | < 1 | Cc1nn2ccc(OCc3ccccn3)cc2c1C(=O)NC(C)(CO)CC(F)F (single isomer, unassigned) [Cpd 038 - En2, N-(4,4-difluoro-1-hydroxy-2-methylbutan-2-yl)-2-methyl-5-[(pyridin-2-yl)methoxy]pyrazolo[1,5-a]pyridine-3-carboxamide]
23 | 1 to 20 | Cc1nn2ccc(OCc3ccccc3F)cc2c1C(=O)NCCNS(C)(=O)=O [Cpd 005, 5-[(2-fluorophenyl)methoxy]-N-(2-methanesulfonamidoethyl)-2-methylpyrazolo[1,5-a]pyridine-3-carboxamide]
24 | 1 to 20 | Cc1nn2ccc(OCc3ccccn3)cc2c1C(=O)NCc1ncc[nH]1 [Cpd 044, N-[(1H-imidazol-2-yl)methyl]-2-methyl-5-[(pyridin-2-yl)methoxy]pyrazolo[1,5-a]pyridine-3-carboxamide]
25 | 1 to 20 | Cc1nn2ccc(OCc3ccccc3F)cc2c1C(=O)N(C)C(C)(CO)C(N)=O (single isomer, unassigned) [Cpd 024 - En2, 2-(1-{5-[(2-fluorophenyl)methoxy]-2-methylpyrazolo[1,5-a]pyridin-3-yl}-N-methylformamido)-3-hydroxy-2-methylpropanamide]
26 | < 1 | Cc1nn2ccc(OCc3ccccc3F)cc2c1C(=O)NC(C)(CO)C(N)=O (single isomer, unassigned) [Cpd 020 - En1, 2-({5-[(2-fluorophenyl)methoxy]-2-methylpyrazolo[1,5-a]pyridin-3-yl}formamido)-3-hydroxy-2-methylpropanamide]
27 | 1 to 20 | Cc1nn2ccc(OCc3ccccn3)cc2c1C(=O)NCC(C)(C)CN(C)C [Cpd 045, N-[3-(dimethylamino)-2,2-dimethylpropyl]-2-methyl-5-[(pyridin-2-yl)methoxy]pyrazolo[1,5-a]pyridine-3-carboxamide]
28 | < 1 | CCC(CO)(NC(=O)c1c(C)nn2ccc(OCc3ccccc3F)cc12)C(N)=O (stereo not shown) [Cpd 001, 2-({5-[(2-fluorophenyl)methoxy]-2-methylpyrazolo[1,5-a]pyridin-3-yl}formamido)-2-(hydroxymethyl)butanamide]
29 | < 1 | Cc1nn2ccc(OCc3ccccn3)cc2c1C(=O)NC(C)(CO)C(N)=O (single isomer, unassigned) [Cpd 089 - En2, 3-hydroxy-2-methyl-2-({2-methyl-5-[(pyridin-2-yl)methoxy]pyrazolo[1,5-a]pyridin-3-yl}formamido)propanamide]
30 | < 1 | Cc1nn2ccc(OCc3ccccc3Cl)cc2c1C(=O)NC(C)(CO)CO [Cpd 014, 5-[(2-chlorophenyl)methoxy]-N-(1,3-dihydroxy-2-methylpropan-2-yl)-2-methylpyrazolo[1,5-a]pyridine-3-carboxamide]
31 | < 1 | Cc1nn2ccc(OCc3ccccc3Cl)cc2c1C(=O)N[C@@H](CO)C(N)=O [Cpd 012, (2S)-2-({5-[(2-chlorophenyl)methoxy]-2-methylpyrazolo[1,5-a]pyridin-3-yl}formamido)-3-hydroxypropanamide]
